{"source": "ChEMBL document CHEMBL4619760", "about": "“Anti-inflammatory Efficacy of Combined Natural Alkaloid Berberine and S1PR Modulator Fingolimod at Low Doses in Ulcerative Colitis Preclinical Models” (J Nat Prod, 2020)", "key": {"[1]": {"experiment": "(§1) Toxicity in DSS-induced C57BL/6 mouse model of chronic relapsing colitis assessed as induction of abnormalities in lung at 0.15 mg/kg, po administered once daily for 30 days starting from day 13 post DSS-challenge cotreated with 20 mg/kg berberine by hematoxylin and eosin staining based light microscopic analysis", "assay_type": "organism-based", "settings": "in vivo, 720 h"}, "THP-1 [2]": {"tested_on": "THP-1", "experiment": "Antiinflammatory activity in human THP1 cells assessed as reduction in LPS-induced IL6 mRNA level at 0.5 uM cotreated with 0.5 uM berberine incubated for 1 hr followed by LPS challenge and measured after 4 to 6 hrs by q-PCR method", "assay_type": "functional, cell-based"}, "Mus musculus [3]": {"tested_on": "Mus musculus", "experiment": "Effect on total STAT3 expression in DSS-induced C57BL/6 mouse model of subchronic relapsing colitis at 0.3 mg/kg, po administered once daily for 14 days starting from day 5 post DSS-challenge by Western blot analysis", "assay_type": "ADME, organism-based", "settings": "in vivo, 336 h"}, "Mus musculus [4]": {"tested_on": "Mus musculus", "experiment": "as §1, with “Anti-colitis activity against” for “Toxicity in”, “reduction” for “induction of abnormalities”, “DSS-induced multiple erosive lesions in colon” for “lung”", "assay_type": "functional, organism-based"}, "THP-1 [5]": {"tested_on": "THP-1", "experiment": "Antiinflammatory activity in human THP1 cells assessed as reduction in LPS-induced TNFalpha mRNA level at 0.5 uM cotreated with 0.5 uM berberine incubated for 1 hr followed by LPS challenge and measured after 4 to 6 hrs by q-PCR method", "assay_type": "functional, cell-based"}, "[6]": {"molecular_target": "Signal transducer and activator of transcription 3 (Homo sapiens) (UniProt P40763)", "sequence (P40763 whole entry)": "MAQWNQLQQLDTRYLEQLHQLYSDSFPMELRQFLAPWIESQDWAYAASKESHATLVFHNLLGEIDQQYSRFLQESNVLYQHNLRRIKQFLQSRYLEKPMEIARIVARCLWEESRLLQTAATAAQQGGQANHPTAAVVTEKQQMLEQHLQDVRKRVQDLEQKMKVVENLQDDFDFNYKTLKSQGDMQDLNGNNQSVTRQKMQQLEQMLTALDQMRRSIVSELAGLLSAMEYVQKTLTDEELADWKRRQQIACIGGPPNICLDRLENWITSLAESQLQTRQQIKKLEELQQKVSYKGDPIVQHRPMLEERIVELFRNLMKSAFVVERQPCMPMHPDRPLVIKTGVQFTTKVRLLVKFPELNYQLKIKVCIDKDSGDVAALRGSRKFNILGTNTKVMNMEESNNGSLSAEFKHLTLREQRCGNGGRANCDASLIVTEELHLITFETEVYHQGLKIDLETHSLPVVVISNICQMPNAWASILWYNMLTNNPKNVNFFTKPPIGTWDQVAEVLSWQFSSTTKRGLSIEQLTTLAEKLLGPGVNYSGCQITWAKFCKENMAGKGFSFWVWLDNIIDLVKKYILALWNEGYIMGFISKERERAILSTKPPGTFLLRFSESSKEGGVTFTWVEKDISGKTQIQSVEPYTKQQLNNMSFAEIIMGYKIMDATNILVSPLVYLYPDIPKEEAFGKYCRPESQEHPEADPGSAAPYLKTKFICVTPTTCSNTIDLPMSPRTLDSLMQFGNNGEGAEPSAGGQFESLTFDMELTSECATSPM", "experiment": "Inhibition of STAT3 activation in human THP1 cells assessed as reduction in LPS-induced phosphorylated STAT3 expression at 0.5 uM cotreated with 0.5 uM berberine incubated for 1 hr followed by LPS challenge and measured after 4 to 6 hrs by Western blot analysis", "assay_type": "cell-based", "settings": "THP-1"}, "Mus musculus [7]": {"tested_on": "Mus musculus", "experiment": "Antiinflammatory activity against DSS-induced C57BL/6 mouse model of subchronic relapsing colitis assessed as reduction in IL17 mRNA level at 0.3 mg/kg, po administered once daily for 14 days starting from day 5 post DSS-challenge by RT-qPCR analysis", "assay_type": "functional, organism-based"}, "Mus musculus [8]": {"tested_on": "Mus musculus", "experiment": "Anti-colitis activity against DSS-induced C57BL/6 mouse model of subchronic relapsing colitis assessed as reduction in spleen swelling at 0.3 mg/kg, po administered once daily for 14 days starting from day 5 post DSS-challenge", "assay_type": "functional, organism-based"}, "Mus musculus [9]": {"tested_on": "Mus musculus", "experiment": "(§2) Anti-colitis activity against DSS-induced C57BL/6 mouse model of subchronic relapsing colitis assessed as effect on body weight at 0.3 mg/kg, po administered once daily for 14 days starting from day 5 post DSS-challenge and measured after day 12 to day 18", "assay_type": "functional, organism-based"}, "Mus musculus [10]": {"tested_on": "Mus musculus", "experiment": "Anti-colitis activity against DSS-induced C57BL/6 mouse model of subchronic relapsing colitis assessed as reduction in stool bleeding scores at 0.3 mg/kg, po administered once daily for 14 days starting from day 5 post DSS challenge and measured on day 19", "assay_type": "functional, organism-based"}, "Mus musculus [11]": {"tested_on": "Mus musculus", "experiment": "Effect on total S1PR1 expression in DSS-induced C57BL/6 mouse model of subchronic relapsing colitis at 0.3 mg/kg, po administered once daily for 14 days starting from day 5 post DSS-challenge by Western blot analysis", "assay_type": "ADME, organism-based", "settings": "in vivo, 336 h"}, "Mus musculus [12]": {"tested_on": "Mus musculus", "experiment": "Anti-colitis activity against DSS-induced C57BL/6 mouse model of chronic relapsing colitis assessed as reduction in disease activity index at 0.3 mg/kg, po administered once daily for 30 days starting from day 13 post DSS-challenge and measured on day 43", "assay_type": "functional, organism-based"}, "Mus musculus [13]": {"tested_on": "Mus musculus", "experiment": "Anti-colitis activity against DSS-induced C57BL/6 mouse model of chronic relapsing colitis assessed as reduction in stool consistency score at 0.3 mg/kg, po administered once daily for 30 days starting from day 13 post DSS-challenge measured on day 24", "assay_type": "functional, organism-based"}, "[14]": {"experiment": "Toxicity in DSS-induced C57BL/6 mouse model of chronic relapsing colitis assessed as induction of abnormalities in lung at 0.3 mg/kg, po administered once daily for 30 days starting from day 13 post DSS-challenge by hematoxylin and eosin staining based light microscopic analysis", "assay_type": "organism-based", "settings": "in vivo, 720 h"}, "Mus musculus [15]": {"tested_on": "Mus musculus", "experiment": "as §2, with “reduction in DSS-induced colon shortening” for “effect on body weight”, “0.15” for “0.3”, “DSS-challenge cotreated with 20 mg/kg berberine” for “DSS-challenge”", "assay_type": "functional, organism-based"}, "Mus musculus [16]": {"tested_on": "Mus musculus", "experiment": "Anti-colitis activity against DSS-induced C57BL/6 mouse model of chronic relapsing colitis assessed as reduction in stool bleeding at 0.3 mg/kg, po administered once daily for 30 days starting from day 13 post DSS-challenge measured on day 43", "assay_type": "functional, organism-based"}, "Mus musculus [17]": {"tested_on": "Mus musculus", "experiment": "Anti-colitis activity against DSS-induced C57BL/6 mouse model of subchronic relapsing colitis assessed as reduction in phosphorylated STAT3 level at 0.3 mg/kg, po administered once daily for 14 days starting from day 5 post DSS-challenge by Western blot analysis", "assay_type": "functional, organism-based"}}, "note": "Activity calls are given as the source filed them. No cut-off for these calls is given here."}
{"smiles": "CCCCCCCCc1ccc(CCC(N)(CO)CO)cc1.Cl", "note": "[FINGOLIMOD HYDROCHLORIDE]", "values": [{"measurement": "Activity", "setting": "[1]", "value": "Non-Toxic"}, {"measurement": "Activity", "setting": "THP-1 [2]", "value": "Active"}, {"measurement": "Activity", "setting": "Mus musculus [3]", "value": "Non-Toxic"}, {"measurement": "Activity", "setting": "Mus musculus [4]", "value": "Active"}, {"measurement": "Activity", "setting": "THP-1 [5]", "value": "Active"}, {"measurement": "inhibition", "setting": "[6]", "value": "Active"}, {"measurement": "Activity", "setting": "Mus musculus [7]", "value": "Active"}, {"measurement": "Activity", "setting": "Mus musculus [8]", "value": "inactive"}, {"measurement": "Activity", "setting": "Mus musculus [9]", "value": "inactive"}, {"measurement": "Activity", "setting": "Mus musculus [10]", "value": "Active"}, {"measurement": "Activity", "setting": "Mus musculus [11]", "value": "Non-Toxic"}, {"measurement": "Activity", "setting": "Mus musculus [12]", "value": "Active"}, {"measurement": "Activity", "setting": "Mus musculus [13]", "value": "Active"}, {"measurement": "Activity", "setting": "[14]", "value": "Non-Toxic"}, {"measurement": "Activity", "setting": "Mus musculus [15]", "value": "Active"}, {"measurement": "Activity", "setting": "Mus musculus [16]", "value": "Active"}, {"measurement": "Activity", "setting": "Mus musculus [17]", "value": "Active"}]}
